In US20110039763A1, “TARGETED ANTIMICROBIAL MOIETIES” (C3 JIAN, INC., priority 2009, published 2011):
Ends that are not written are not given here. Peptide text beside a SMILES is read from it.

Experiments:
S. mutans [1] = assay: Post-antibiotic effect assay, S. mutans; format: cell-based, Streptococcus mutans; settings: S. mutans monoculture; peptide 10 min, then fresh medium; FIG. 17A
Method: (§1) The activity and selectivity of MH-STAMPs after a 10 min incubation was determined by growth retardation experiments against targeted and untargeted bacteria in monocultures, as described previously (Id.). Cells from overnight cultures were diluted to ˜5×10^6 cfu/mL in MH (or TH with 1% sucrose for S. mutans), normalized by OD600 0.05-0.1 and seeded to 96-well plates. Cultures were then grown under the appropriate conditions for 2 h (3 h for S. mutans) prior to the addition of peptides for 10 min. Plates were then centrifuged at 3000×g for 5 min, the supernatants discarded, fresh medium returned (MH or TH without sucrose for S. mutans), and incubation resumed. Bacterial growth after treatment was then monitored over time by OD600.
(§2) MH-STAMP antimicrobial kinetics was ascertained utilizing a variation of the classical post-antibiotic effect assay, which measures the ability of an agent to affect an organism's growth after a short exposure period. Monocultures of MH-STAMP-targeted and untargeted organisms were exposed to M8(KH)-20, M8(BL)-20, BL(KH)-20, or unmodified BD2.20, then allowed to recover. […] Furthermore, replacement of the targeting region with a non-binding peptide abolishes specific activity.

P. aeruginosa [2] = assay: Post-antibiotic effect assay, P. aeruginosa; format: cell-based, Pseudomonas aeruginosa; settings: P. aeruginosa monoculture; peptide 10 min, then fresh medium; FIG. 17B
Method: as §1, §2

S. epidermidis [3] = assay: Post-antibiotic effect assay, S. epidermidis; format: cell-based, Staphylococcus epidermidis; settings: S. epidermidis monoculture; peptide 10 min, then fresh medium; FIG. 17C
Method: as §1, §2

S. aureus = assay: Post-antibiotic effect assay, S. aureus; format: cell-based, Staphylococcus aureus; settings: S. aureus monoculture; peptide 10 min, then fresh medium; FIG. 17D
Method: as §1, §2

E. coli = assay: Post-antibiotic effect assay, E. coli; format: cell-based, Escherichia coli; settings: E. coli monoculture; peptide 10 min, then fresh medium; FIG. 17E
Method: as §1, §2

[4] = tested on: Mixed planktonic populations of P. aeruginosa, E. coli, S. epidermidis, and S. mutans; assay: Microbial population shift assay; format: cell-based; settings: mixed culture, 10 μM peptide, 24 h, detection limit 200 cfu/mL, FIG. 18
Method: Peptide (10 μM) or mock-treatment (1×PBS) was then added and samples were incubated at 37° C. for 24 h under anaerobic conditions (80% N2, 15% CO2, 5% H2). […] Plates were then incubated 37° C. under aerobic conditions (TH plates were incubated anaerobically) and colonies counted after 24 h to determine survivors. […] Gram stains and direct microscopic observation (from select isolated colonies) were undertaken to confirm species identity (data not shown). The detection limit of the assay was 200 cfu/mL.
We hypothesized that potential MH-STAMP dual-functionality could affect a particular set of bacteria within a mixed population, thereby promoting the outgrowth of non-targeted organisms and “shifting” the constituent makeup. To examine this possibility, defined mixed populations of planktonic cells were treated continuously and the make-up of the community examined after 24 h.

S. mutans UA140 biofilms = assay: Photodynamic antimicrobial assay, single-species biofilm; format: cell-based, Streptococcus mutans; settings: 24 h S. mutans biofilm; 5 μM, no light
Method: To evaluate C16-RB against monoculture biofilms, S. mutans UA140 was grown overnight in TH prior to inoculation for biofilm formation. For biofilms, 1:5000 dilution of overnight culture was made into TH with 1% sucrose in 2 mL centrifuge tubes (200 μL volume) and grown 24 h under anaerobic conditions. After incubation, biofilms were treated for 5 min with 5 or 25 μM C16-RB or 5 μM RB in 1×PBS, or PBS alone, followed by removal of supernatant and exposure to 5 min blue light (emission 400-550 nm, power 400 mW/cm^2) from an Astralis 7 (Ivoclar Vivodent, Austria) handheld LED commonly used as a dental curing light. The light source was suspended 4 cm from the tube bottom (even with the mouth of the tube). A duplicate set of samples were left covered to serve as dark controls. After treatment, biofilms were mechanically disrupted and plated to determine cfu/mL.
After synthesis, the basic photosensitization potential of C16-RB was assessed by challenging mature single-species S. mutans biofilms (grown 24 h) with C16-RB or unmodified RB, followed by blue emission from a dental curing light.

[5] = tested on: mixed biofilms of S. oralis, S. gordonii, S. mitis, S. sanguinis, S. salivarius, and S. mutans JM11; assay: Photodynamic antimicrobial assay, multispecies biofilm; format: cell-based
Method: To gauge C16-RB selectivity for S. mutans, similar assays were conducted against multispecies biofilms. Mixed biofilms were seeded by diluting (1:5000) a mixture of equal parts S. oralis, S. gordonii, S. mitis, S. sanguinis, S. salivarius, and S. mutans JM11 (made from overnight cultures) into TH with 1% sucrose, 1% glucose, and 1% mannose. Biofilms were incubated and treated as described above with the addition of vitamin C or potassium gluconate. After the addition of agent and 5 min incubation, biofilms were washed 1× with 1×PBS prior to light exposure. After PDT and biofilm disruption, survivors were plated on TH, and TH supplemented with 800 μg/mL spectinomycin, which allowed for quantitation of surviving total oral streptococci and surviving S. mutans, respectively.
C16-RB was next evaluated for selectivity in mixed cultures containing S. mutans and non-cariogenic oral streptococci that compete for the same niche on the tooth surface. We utilized mixed biofilms of S. mutans transformed with spectinomycin resistance (strain JM11, Merritt, et al., 2005), plus S. oralis, S. gordonii, S. mitis, S. sanguinis, and S. salivarius. The mixed cultures were grown 24 and then treated with RB or C16-RB as indicated, plus potassium gluconate to minimize killing of untargeted bacteria by reducing the superoxide-producing activity of the free C16-RB not bound to S. mutans. […]

[6] = tested on: BHK-21 (ATCC CRL-10) fibroblasts; assay: Cytotoxicity (Promega CellTiterGlo assay); format: cell-based, hamster
Method: Streptococcus oralis ATCC 10557, Streptococcus gordonii (Challis), Streptococcus sanguinis (NY101), Streptococcus mitis ATCC 903, Streptococcus salivarius ATCC 13419 and S. mutans wild-type UA140 and JM11 (spectinomycin-resistant) strains were grown in Todd-Hewitt (TH) broth 37° C. in an anaerobic atmosphere of 80% N2, 10% CO2, and 10% H2. BHK-21 (ATCC CRL-10) fibroblasts were propagated in DMEM with 10% FBS, 1 mM sodium pyruvate, 100 units/mL penicillin G, and 100 μg/mL streptomycin at 37° C. with 5% CO2. Cells were detached with 0.25% trypsin and subcultured as recommended by the supplier.
The effect of RB and C16-RB on human fibroblasts was ascertained by utilizing the Promega CellTiterGlo assay, as described by the manufacturer. Briefly, fibroblasts were grown to confluence, detached, and seeded to 5,000 cells per well in a 96-well opaque walled, clear bottom 96-well plate (Nunc International). For long-term dark toxicity, cells were allowed to attach to for 18 h before the culture medium was replaced with medium plus serially-diluted RB or C16-RB (200 μM to 390 nM) or medium alone. After 18-24 h, equal volume Cell Titer Glo reagent was added to each well and mixed. Luciferace activity was then quantified to measure cell viability (Varian Fluorometer in Biolumenescence mode). To measure cytotoxicity after RB or C16-RB light exposure, cells were seeded at ˜10,000 cells per well and allowed to attach for 4 h. Cell growth medium was then replaced with RB or C16-RB containing medium, prior to exposure (a single well at a time) with blue light (400 mW/cm^2) suspended ˜3 cm from the well bottom. After exposure, cultures were disrupted with Cell Titer Glo and luciferase activity quantitated as above.

S. mutans [7] = assay: MIC test (broth microdilution) / antimicrobial activity, S. mutans; format: cell-based, Streptococcus mutans
How it was run: (§3)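 Broth microdilution with ~1×10^5 cfu/mL organisms in TH broth (S. mutans) or Mueller-Hinton broth (other organisms). Peptides added as 2-fold serial dilutions, then incubated 18-24 h at 37° C. Experiments run 10 times.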

P. aeruginosa [8] = assay: MIC test (broth microdilution) / antimicrobial activity, P. aeruginosa; format: cell-based, Pseudomonas aeruginosa; settings: P. aeruginosa
Method: (§4) The active AMPs, STAMPs and the like can be identified and/or validated using an in vitro screening assay.
(§5) It will be appreciated that other assays as are well known in the art or that will become apparent to those having skill in the art upon review of this disclosure may also be used to identify active AMPs. Such assays include, for example, the assay described in Lehrer et al. (1988) J. Immunol.
(§6) Peptides were evaluated for basic antimicrobial activity by broth microdilution, as described previously (Eckert et al. (2006) Antimicrob Agents Chemother., 50: 3651-3657; Eckert et al. (2006) Antimicrob Agents Chemother., 50: 1480-1488). Briefly, ˜1×10^5 cfu/mL bacteria were diluted in TH (S. mutans), or Mueller-Hinton (MH) broth (all other organisms) and distributed to 96-well plates. Serially-diluted (2-fold) peptides were then added and the plates incubated at 37° C. for 18-24 h. […] All experiments were conducted 10 times.

A. baumannii = assay: MIC test / antimicrobial activity, A. baumannii; format: cell-based, Acinetobacter baumannii
Method: as §4, §5, §6

T. rubrum = assay: MIC test / antimicrobial activity, T. rubrum; format: cell-based, Trichophyton rubrum
Method: as §4, §5, §6

A. niger = assay: MIC test / antimicrobial activity, A. niger; format: cell-based, Aspergillus niger
Method: as §4, §5, §6

B. subtilis = assay: MIC test / antimicrobial activity, B. subtilis; format: cell-based, Bacillus subtilis; settings: B. subtilis
How it was run: as §3

C. difficile = assay: MIC test / antimicrobial activity, C. difficile; format: cell-based, Clostridium difficile
Method: as §4, §5, §6

C. jeikeium = assay: MIC test / antimicrobial activity, C. jeikeium; format: cell-based, Corynebacterium jeikeium
Method: as §4, §5, §6

S. epidermidis [9] = assay: MIC test (broth microdilution) / antimicrobial activity, S. epidermidis; format: cell-based, Staphylococcus epidermidis; settings: S. epidermidis
Method: as §4, §5, §6

microorganisms [10] = assay: Peptide activities: targeting/binding, antimicrobial, growth or phenotype altering (Tables 7, 8); format: cell-based; settings: peptides having multiple activities
microorganisms [11] = assay: Morphology, biofilm and growth disrupting peptides (Table 5); format: cell-based; set-up: key: A: Peptide aggregates; B: Less hyphal formation; Clumps; Diffuse clumps and small polyps; F: Diffuse growth; H: Thin; I: Growth inhibition; Microcolony formation; Rippled; Small polyps; Thick; W: Halo formation on top, microlonies on bottom
Excerpt: In certain embodiments peptides that induce alterations in phenotype or other biological activities can also be used as antimicrobial effector moieties.

For `CC[C@H](C)[C@H](NC(=O)[C@@H](N)Cc1ccccc1)C(=O)N[C@@H](CCCNC(=N)N)C(=O)N[C@@H](CCCCN)C(=O)N[C@@H](Cc1ccccc1)C(=O)N[C@@H](CC(C)C)C(=O)N[C@@H](CCCCN)C(=O)N[C@@H](CCCCN)C(=O)N[C@@H](Cc1c[nH]c2ccccc12)C(=O)N[C@@H](CC(C)C)C(=O)N[C@@H](CC(C)C)C(N)=O` [BD2.20] (H-FIRKFLKKWLL-NH2; N-terminus assumed), the “growth after treatment (culture recovery, OD600)” value (from here on “growth after treatment”) (S. mutans [1]) was “robust antimicrobial activity”, the “growth after treatment” value (P. aeruginosa [2]) was “robust antimicrobial activity” and the “growth after treatment” value (S. epidermidis [3]) was “inhibited”. The “growth after treatment” value (S. aureus) was “inhibited”, the “growth after treatment” value (E. coli) was “inhibited” and the “surviving P. aeruginosa” value ([4]; input ~0.5×10^4 cfu/mL) was “significant loss of recoverable cfu/mL”. The “surviving E. coli” value ([4]; input ~2×10^4 cfu/mL) was “significant loss of recoverable cfu/mL”, the “surviving S. epidermidis” value ([4]; input ~2×10^4 cfu/mL) was “significant loss of recoverable cfu/mL” and the “surviving S. mutans” value ([4]; input ~6×10^4 cfu/mL) was “significant loss of recoverable cfu/mL”.
In the case of `O=C1OC2(c3cc(I)c(O)c(I)c3Oc3c2cc(I)c(O)c3I)c2c(Cl)c(Cl)c(Cl)c(Cl)c21` [RB, rose bengal], the “decrease in cfu/mL, dark control” value (S. mutans UA140 biofilms) is reported as “appreciable decreases in cfu/mL were not observed”, the “selectivity of photodynamic antimicrobial activity” value ([5]; blue light illumination, FIG. 22) is reported as “strong indiscriminant photodynamic antimicrobial effects” and the “ratio of surviving S. mutans:non-cariogenic streptococci cfu” value ([5]; potassium gluconate, blue light) is reported as ~1. The IC50 ([6]; 5 min w/blue light) was 40 µM, the “IC50 (μM) BHK” value ([6]; 5 min w/blue light) was “light-dependent toxicity” and the IC50 ([6]; 24 h dark) was 90 µM.
In the case of YIQFHLNQQPRPKVKKIKIFL-NH2 [PF-531], the “Organism MIC (μM)” value (S. mutans [7]) is reported as “S. mutans, 12.5 μM”, the “Organism MIC (μM)” value (P. aeruginosa [8]) is reported as “P. aeruginosa, 50 μM” and the “Organism MIC (μM)” value (A. baumannii) is reported as “A. baumannii, 25 μM”. For the same compound, the “Organism MIC (μM)” value (T. rubrum) was “T. rubrum, 50 μM”, the “Organism MIC (μM)” value (A. niger) was “A. niger, 25 μM” and the “Organism MIC (μM)” value (B. subtilis) was “B. subtilis, 25 μM”. For the same compound, the “Organism MIC (μM)” value (C. difficile) was “C. difficile, 12.5 μM”, the “Organism MIC (μM)” value (C. jeikeium) was “C. jeikeium, 6.25 μM” and the “Organism MIC (μM)” value (S. epidermidis [9]) was “S. epidermidis, 50 μM”. For the same compound, the Activities (microorganisms [10]) was “G M”, the “Organism, effect” value (microorganisms [11]; E. coli) was “E. coli (M)” and the “Organism, effect” value (microorganisms [11]; P. aeruginosa) was “P. aeruginosa (I)”. For the same compound, the “Organism, effect” value (microorganisms [11]; S. epidermidis) was “S. epidermidis (I)” and the “Organism, effect” value (microorganisms [11]; S. pneumoniae) was “S. pneumoniae (C)”.
